This is an account of results in patent US11731982B2, “Biotin derivatives” (LIFE TECHNOLOGIES CORPORATION, priority 2010, dated 2023).

A value given as a limit tells only on which side of the number the result lay.

As a reminder, the Kd is the equilibrium constant for the complex coming apart.

The target in one assay is T1, streptavidin (Streptomyces avidinii, UniProt P22629).
T1 construct: purchased ForteBio
As to the kind of experiment: Kinetic measurement of rate constants, label-free ForteBio system, N3′-ethyl biotin immobilized on sensor tips. It is filed as binding. Here is the method: The binding constant and on-and-off rate constant of N3′-ethyl biotin with streptavidin were tested using a label-free ForteBio system. The N3′-ethyl biotin 117 was covalently immobilized to amine reactive sensor tips from ForteBio. To generate the association curve, the N3′-ethyl biotin labeled biosensor tips were incubated with streptavidin at 25° C. The dissociation curve was determined by incubating the streptavidin bound sensor tips in PBS buffer described above, as well as in PBS buffer containing 2 mM biotin at 25° C. […] The dissociation constant kD of N3′-ethyl biotin is about 0.8 nM.
The details of fluorescent capture and release assay were follows. All interaction analyses were conducted at 25° C. in kinetic buffer (PBS, 0.1% BSA, 0.05% Tween-20, pH 7.2). The amine reactive biosensor tips from ForteBio were prewet for 20 min in water prior to use. The prepared samples and buffers were added to a 96-well microplate at 200 μL per well according the following sample layout, and the entire 96-well plate was agitated at 1000 rpm. Eight biosensor tips were performed the kinetic assay in parallel. Each amine reactive biosensor tip was equilibrated in MES buffer for 5 min, then activated with EDC/NHS for 5 min. The activated biosensor tip was labeled with 2 mM N3′-ethyl biotin 117 for 10 min, then quenched with 1 M ethanolamine for 5 min. The N3′-ethyl biotin 117 immobilized biosensor tip was incubated in kinetic buffer for 5 min to generate baseline, then incubated with 2 μg/mL streptavidin in kinetic buffer or kinetic buffer (control) at 1000 rpm for 10 min to generate association curve, followed by incubation with kinetic buffer or 2 mM biotin in kinetic buffer at 1000 rpm for 10 min to generate dissociation curve. The ForteBio Data Analysis Octet software was used to process the curve by subtracting sample curve from reference curve, and the kinetic data was calculated by fitting curve.
In general terms: Biolayer interferometry detects binding as a change in optical thickness at a sensor tip.

A short description of assay [1]: Isolation of azido sugar containing glycoproteins from Jurkat cell lysate by click labeling and streptavidin agarose. The conditions noted are these: elution 1% SDS in H2O at 95° C. for 5 min. Here is the method:
In order to isolate azido sugar containing glycoproteins from cell mixture, the Jurkat cells were cultured in Ac4GlcNAz supplemented media for 24 h. In this culturing, Jurkat cells were cultured in 100 mL RPMI 1640 media supplemented with 10% FBS at two T175 tissue culture flasks. When cell density reached ˜10×10^6 cells/mL, 100 μL of Ac4GlcNAz (100 mM in DMSO) and DMSO (control) were added, respectively. The flasks were incubated at 37° C. humidified incubator with 5% CO2 for 24 h. After incubation, the Jurkat cells were collected by centrifugation at 600×g for 5 min, and washed with PBS five times. The cell pellet was suspended in PBS to adjust the cell density at 50×10^6 cells/mL, and transferred 1 mL each to 1.5 mL tube. The cells were collected again by centrifugation at 600×g for 5 min. Then, 1 mL of 0.5% SDS/PBS was added to each tube, and lysated by sonication. The cell lysate was prepared at ˜3 mg/mL in 0.5% SDS/PBS.
Cell lysate was incubated with N3′-ethyl biotin alkyne 118 or biotin alkyne in the presence of CuSO4, THPTA, and sodium ascorbate at room temperature as described below. N3′-Ethyl biotin alkyne 118 and biotin alkyne (Invitrogen) were used to perform parallel protein enrichment experiments. Biotin alkyne has the structure: […]

Assay [2] addresses T2, M-280 Streptavidin Dynabeads (streptavidin) (Streptomyces avidinii, UniProt P22629).
T2 construct: purchased Invitrogen
As to the kind of experiment: Fluorescent capture and release assay on M-280 Streptavidin Dynabeads. Format: binding. Here is the method: In order to evaluate the binding affinity and reversibility of N3′-ethyl biotin with streptavidin, a simple fluorescent binding and release assay was designed. Briefly, N3′-ethyl biotin-AF488 conjugate 117 was incubated with M-280 Streptavidin Dynabeads in pH 7.4 PBS buffer. After 25 min incubation at room temperature, the magnetic beads were separated from the supernatant, which was used to measure the capture efficiency, by measuring the fluorescent intensity of the supernatant solution to determine the amount that was not captured. Then, the N3′-ethyl biotin 117 bound magnetic beads were washed with PBS buffer to remove weak or non-specific binding. The reversibility was tested by incubating the N3′-ethyl biotin 117 bound magnetic beads with 2 mM biotin in PBS buffer at room temperature for 5 min, then the magnetic beads were concentrated by a magnet, and the fluorescent intensity in the solution was measured to determine the amount that was released. As a control, biocytin-AF488 conjugate was also tested in the same assay format.
The details of fluorescent capture and release assay were as follows. 100 μL of M280 Streptavidin Dynabeads (10 mg/mL, Invitrogen) was transferred to a 1.5 mL centrifuge tube, and washed with 500 μL PBS three times. […]

T1 sequence (P22629 25-183): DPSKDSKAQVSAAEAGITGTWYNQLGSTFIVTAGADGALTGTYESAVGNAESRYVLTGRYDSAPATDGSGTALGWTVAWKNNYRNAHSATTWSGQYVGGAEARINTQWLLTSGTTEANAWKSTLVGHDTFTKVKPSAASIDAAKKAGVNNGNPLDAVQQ
T2 sequence (P22629 25-183): as above

With `CCN1C(=O)N[C@H]2CS[C@@H](CCCCC(=O)O)[C@H]21` [N3′-ethyl biotin], the “off-rate koff in the presence of 1 mM bis-biotin competing reagent” value on streptavidin (1 mM bis-biotin) was ~5.8×10^−2 S^−1. In addition, at streptavidin (25° C.), the “on-rate kon with streptavidin” value is ~1.5×10^5 M^−1S^−1. Also, the “off-rate koff in the presence of 2 mM biotin” value on streptavidin (25° C., 2 mM biotin) is listed as ~5.8×10^−2 S^−1. The dissociation constant Kd at streptavidin (25° C., read-out: dissociation constant kD) is approximately 0.8 nM.

`C#CCNC(=O)CCOCCOCCOCCOCCNC(=O)CCCC[C@@H]1SC[C@@H]2NC(=O)N[C@@H]21` [biotin alkyne]: the “quality of isolated proteins” value in assay [1] is “contaminated with streptavidin”.

Compound `N[C@@H](CCCCNC(=O)CCCC[C@@H]1SC[C@@H]2NC(=O)N[C@@H]21)C(=O)O` [Biocytin] displayed a Capture efficiency in assay [2] (0.2 μM in PBS pH 7.4, 25 min room temperature) of 96 ± 2%. In assay [2] (2 mM biotin in PBS, room temperature 5 min), the Release efficiency was less than 5%.

On to Biotin, for which the “reversibility of streptavidin binding” value at streptavidin (in the presence of 1 mM bis-biotin competing reagent) is reported as “almost irreversible”.
